Data taken from ChEMBL document CHEMBL1201862, “PubChem BioAssay data set” (2004).
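Test compounds were applied to cells in 96-well plates for 48 hours at 5 doses. GI50 marks 50% less growth.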 Active and inactive are the calls of the source. Cut-off read from the data, not from the text of the source: active = GI50 up to about 1.1 µM and inactive = higher.

Assays:
Assay in all cases: inhibition of tumour cell growth, NCI panel, 48 h
786-0 = system: 786-0
MCF7 = system: MCF7
Hs-578T = system: Hs-578T
U-251 = system: U-251
BT-549 = system: BT-549
LOX IMVI = system: LOX IMVI
HL-60 = system: HL-60
HCT-116 = system: HCT-116
NCI-H522 = system: NCI-H522
M14 = system: M14
UO-31 = system: UO-31
OVCAR-4 = system: OVCAR-4
OVCAR-8 = system: OVCAR-8
SNB-19 = system: SNB-19
NCI/ADR-RES = system: NCI/ADR-RES
KM12 = system: KM12
EKVX = system: EKVX
COLO 205 = system: COLO 205
NCI-H23 = system: NCI-H23

| Structure (SMILES) | GI50 (786-0) | GI50 (MCF7) | GI50 (Hs-578T) | GI50 (U-251) | GI50 (BT-549) | GI50 (LOX IMVI) | GI50 (HL-60) | GI50 (HCT-116) | GI50 (NCI-H522) | GI50 (M14) | GI50 (UO-31) | GI50 (OVCAR-4) | GI50 (OVCAR-8) | GI50 (SNB-19) | GI50 (NCI/ADR-RES) | GI50 (KM12) | GI50 (EKVX) | GI50 (COLO 205) | GI50 (NCI-H23) |
| --- | --- | --- | --- | --- | --- | --- | --- | --- | --- | --- | --- | --- | --- | --- | --- | --- | --- | --- | --- |
| O=C(N/N=C1/C(=O)c2c3ccccc3cc3cccc1c23)c1ccccc1 | 19.1 µM (inactive) | 30.4 µM (inactive) | 40.6 µM (inactive) | 31.6 µM (inactive) | > 100 µM (inactive) | 37.9 µM (inactive) | > 68.9 µM (inactive) | 30.8 µM (inactive) | 32.7 µM (inactive) | 48.4 µM (inactive) | 30.9 µM (inactive) | 20.8 µM (inactive) | 31.1 µM (inactive) | 35.8 µM (inactive) | 40 µM (inactive) | 16.7 µM (inactive) | 75.7 µM (inactive) | > 65.6 µM (inactive) | 36.3 µM (inactive) |
| CC(C)NCCCNc1c2ccccc2nc2cccc([N+](=O)[O-])c12 | 0.00445 µM (active) | < 0.001 µM (active) | 0.0383 µM (active) | 0.0143 µM (active) | 0.0421 µM (active) | 0.0101 µM (active) | 0.013 µM (active) | 0.0262 µM (active) | 0.00161 µM (active) | 0.0113 µM (active) | 0.123 µM (active) | 0.00438 µM (active) | 0.00566 µM (active) | 0.0499 µM (active) | 0.794 µM (active) | 0.0169 µM (active) | 0.0177 µM (active) | 0.00161 µM (active) | 0.00156 µM (active) |
| Cc1cc2c(O)c(c1)CN(CC(=O)O)Cc1cc(C)cc(c1O)CN(CC(=O)O)Cc1cc(C)cc(c1O)CN(CC(=O)O)C2 | > 100 µM (inactive) | > 100 µM (inactive) | > 100 µM (inactive) | > 100 µM (inactive) | > 100 µM (inactive) | > 100 µM (inactive) |  | > 100 µM (inactive) | > 100 µM (inactive) | > 100 µM (inactive) | > 100 µM (inactive) | > 100 µM (inactive) | > 100 µM (inactive) | > 100 µM (inactive) | > 100 µM (inactive) | > 100 µM (inactive) | > 100 µM (inactive) | > 100 µM (inactive) | > 100 µM (inactive) |
| CC(C)=NNc1cnnc2ccc([N+](=O)[O-])cc12 | 51.3 µM (inactive) | 57.8 µM (inactive) | > 100 µM (inactive) | > 100 µM (inactive) | > 100 µM (inactive) |  | 16.3 µM (inactive) | 59.6 µM (inactive) | 15.5 µM (inactive) | 78 µM (inactive) | 35.2 µM (inactive) |  | > 100 µM (inactive) | > 100 µM (inactive) | > 100 µM (inactive) | > 100 µM (inactive) | > 100 µM (inactive) | 36.6 µM (inactive) | > 100 µM (inactive) |
| O=C(O)COc1c(Cl)cc(Cl)c(C(c2c(Cl)cc(Cl)c(OCC(=O)O)c2Cl)C(Cl)(Cl)Cl)c1Cl | 37.2 µM (inactive) | 36.1 µM (inactive) | 38 µM (inactive) | 26.7 µM (inactive) | 23.1 µM (inactive) | 33.7 µM (inactive) | 21.7 µM (inactive) | 28.2 µM (inactive) | 33.8 µM (inactive) | 20.7 µM (inactive) | 23 µM (inactive) | 30.8 µM (inactive) | 43.8 µM (inactive) | > 100 µM (inactive) | 34 µM (inactive) | 40.1 µM (inactive) |  | 40 µM (inactive) | 25.9 µM (inactive) |
| O=c1ccn(CC2(CO)CCCC2)c(=O)[nH]1 | > 100 µM (inactive) | > 100 µM (inactive) | > 100 µM (inactive) | > 100 µM (inactive) | > 100 µM (inactive) | > 100 µM (inactive) | > 100 µM (inactive) | > 100 µM (inactive) | > 100 µM (inactive) |  | > 100 µM (inactive) | > 100 µM (inactive) | > 100 µM (inactive) |  | > 100 µM (inactive) | > 100 µM (inactive) | > 100 µM (inactive) | > 100 µM (inactive) | > 100 µM (inactive) |
| COc1ccc(C(OCC2OC(n3ccc(Oc4c(F)c(F)c(F)c(F)c4F)nc3=O)CC2OP(OCCC#N)N(C(C)C)C(C)C)(c2ccccc2)c2ccc(OC)cc2)cc1 (configuration not stated) | > 100 µM (inactive) | > 100 µM (inactive) | > 100 µM (inactive) | > 100 µM (inactive) | > 100 µM (inactive) | > 100 µM (inactive) | > 100 µM (inactive) | > 100 µM (inactive) | > 100 µM (inactive) | > 100 µM (inactive) | > 100 µM (inactive) |  | > 100 µM (inactive) | > 100 µM (inactive) | > 100 µM (inactive) | > 100 µM (inactive) | > 10 µM (inactive) | > 100 µM (inactive) | 42.8 µM (inactive) |
| CC(C)=CCc1c2c(c3occ(-c4ccc(O)c(O)c4)c(=O)c3c1O)C=CC(C)(C)O2 [POMIFERIN] | 1.51 µM (inactive) | 1.34 µM (inactive) | 1.22 µM (inactive) | 1.48 µM (inactive) | 3.46 µM (inactive) | 2.19 µM (inactive) |  | 1.85 µM (inactive) | 0.188 µM (active) | 1.68 µM (inactive) | 1.54 µM (inactive) | 1.59 µM (inactive) | 2.81 µM (inactive) | 1.96 µM (inactive) | 2.18 µM (inactive) | 1.72 µM (inactive) | 4.86 µM (inactive) | 1.78 µM (inactive) | 1.57 µM (inactive) |
| Cc1cc2c(cc1C)[n+]([O-])c(C(F)(F)F)c(C(=O)c1ccccc1)[n+]2[O-] | 3.47 µM (inactive) | 3.27 µM (inactive) | 2.58 µM (inactive) | 2.67 µM (inactive) | 5.35 µM (inactive) | 2.17 µM (inactive) | 1.69 µM (inactive) | 2.24 µM (inactive) | 2.99 µM (inactive) | 3.73 µM (inactive) | 0.484 µM (active) |  | 2.93 µM (inactive) | 3.56 µM (inactive) | 2.49 µM (inactive) | 1.85 µM (inactive) | 0.785 µM (active) | 1.82 µM (inactive) | 2.12 µM (inactive) |
| CNc1nc2c(C)ccc3nc(N(C)C)nc-3c2n1C | > 10 µM (inactive) | > 10 µM (inactive) | > 10 µM (inactive) | > 10 µM (inactive) | > 10 µM (inactive) |  |  | > 10 µM (inactive) | > 10 µM (inactive) | > 10 µM (inactive) | > 10 µM (inactive) | > 10 µM (inactive) | > 10 µM (inactive) | > 10 µM (inactive) | > 10 µM (inactive) | > 10 µM (inactive) | > 10 µM (inactive) | > 10 µM (inactive) | > 10 µM (inactive) |
| CCOC(=O)/C=C/[C@@H](CC)O[Si](C(C)C)(C(C)C)C(C)C | > 100 µM (inactive) | 90.2 µM (inactive) | > 100 µM (inactive) | > 100 µM (inactive) | > 100 µM (inactive) | > 100 µM (inactive) |  | > 100 µM (inactive) | > 100 µM (inactive) |  | > 100 µM (inactive) | > 100 µM (inactive) | > 100 µM (inactive) | > 100 µM (inactive) | > 100 µM (inactive) | > 100 µM (inactive) | > 100 µM (inactive) | > 100 µM (inactive) | > 100 µM (inactive) |
| O=[N+]([O-])c1ccc(/C=C(/c2ccc([N+](=O)[O-])o2)S(=O)(=O)c2ccccc2)o1 | 3.17 µM (inactive) | 11.8 µM (inactive) | 15.4 µM (inactive) | 15.9 µM (inactive) | 19.9 µM (inactive) |  | 2.75 µM (inactive) | 1.71 µM (inactive) | 1.93 µM (inactive) | 11.1 µM (inactive) | 4.34 µM (inactive) | 4.22 µM (inactive) | 4.49 µM (inactive) | 20.1 µM (inactive) | 18 µM (inactive) | 17.7 µM (inactive) | 0.0885 µM (active) | 2.13 µM (inactive) | 19.7 µM (inactive) |
| NNC(=O)CSc1nc2ccccc2c(=O)n1N | 19 µM (inactive) | 91.8 µM (inactive) | 29.7 µM (inactive) | 19.1 µM (inactive) | 42.1 µM (inactive) | 43.4 µM (inactive) |  | 31.6 µM (inactive) | 58.7 µM (inactive) | > 100 µM (inactive) | > 100 µM (inactive) | > 100 µM (inactive) | 31.9 µM (inactive) | 14.9 µM (inactive) | > 100 µM (inactive) | > 100 µM (inactive) | 53.8 µM (inactive) | > 100 µM (inactive) | 29.8 µM (inactive) |
| NNC(=O)CC(=O)Nc1cccc(Cl)c1 | > 100 µM (inactive) | > 100 µM (inactive) | > 100 µM (inactive) | > 100 µM (inactive) | > 100 µM (inactive) | > 100 µM (inactive) | > 100 µM (inactive) | > 100 µM (inactive) | 25.4 µM (inactive) |  | > 100 µM (inactive) | > 100 µM (inactive) | > 100 µM (inactive) | > 100 µM (inactive) | 2.21 µM (inactive) | > 100 µM (inactive) | > 100 µM (inactive) | > 100 µM (inactive) | > 100 µM (inactive) |
| CC1(C)CC(=O)c2c(nc3c(ccc4ccccc43)c2-c2ccc(NC(=O)CCC(=O)Nc3ccc(-c4c5c(nc6c4ccc4ccccc46)CC(C)(C)CC5=O)cc3)cc2)C1 | > 100 µM (inactive) | > 100 µM (inactive) | > 100 µM (inactive) | > 100 µM (inactive) | > 100 µM (inactive) | > 100 µM (inactive) | > 100 µM (inactive) | > 100 µM (inactive) | > 100 µM (inactive) | > 100 µM (inactive) | > 100 µM (inactive) |  | > 100 µM (inactive) | > 100 µM (inactive) | > 100 µM (inactive) | > 100 µM (inactive) | 95.3 µM (inactive) | > 100 µM (inactive) |  |
